# Source: ChEMBL document CHEMBL1201862, “PubChem BioAssay data set” (2004)
# The source made the active and inactive calls.
# Assays:
# [1] = biological target: T1, Mannose-6-phosphate isomerase (Homo sapiens, UniProt P34949); test: MPI inhibition at elevated mannose 6-phosphate – biochemical, fluorescence intensity, high mannose 6-phosphate, primary screen (AID 1220)
# T1 sequence (P34949 whole entry): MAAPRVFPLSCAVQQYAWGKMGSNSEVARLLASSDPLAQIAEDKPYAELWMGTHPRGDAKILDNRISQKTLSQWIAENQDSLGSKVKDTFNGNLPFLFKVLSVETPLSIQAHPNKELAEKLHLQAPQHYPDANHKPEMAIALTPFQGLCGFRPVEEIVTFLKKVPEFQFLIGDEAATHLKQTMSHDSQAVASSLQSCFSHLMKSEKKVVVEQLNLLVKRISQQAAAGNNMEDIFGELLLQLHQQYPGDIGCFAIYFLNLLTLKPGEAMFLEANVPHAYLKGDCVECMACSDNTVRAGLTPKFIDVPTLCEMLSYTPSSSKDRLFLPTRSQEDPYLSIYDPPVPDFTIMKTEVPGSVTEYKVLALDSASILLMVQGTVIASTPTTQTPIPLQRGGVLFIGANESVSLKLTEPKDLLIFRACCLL
# [2] = biological target: T2, Polyadenylate-binding protein 1 (Homo sapiens, UniProt P11940); test: MLLE domain peptide-binding blockers, IC50 – biochemical, fluorescence polarization, FITC-PAM2 peptide, dose response (AID 602259); assay type: functional; conditions: read-out: IC50_Mean
# T2 sequence (P11940 whole entry, the tested form may be a part): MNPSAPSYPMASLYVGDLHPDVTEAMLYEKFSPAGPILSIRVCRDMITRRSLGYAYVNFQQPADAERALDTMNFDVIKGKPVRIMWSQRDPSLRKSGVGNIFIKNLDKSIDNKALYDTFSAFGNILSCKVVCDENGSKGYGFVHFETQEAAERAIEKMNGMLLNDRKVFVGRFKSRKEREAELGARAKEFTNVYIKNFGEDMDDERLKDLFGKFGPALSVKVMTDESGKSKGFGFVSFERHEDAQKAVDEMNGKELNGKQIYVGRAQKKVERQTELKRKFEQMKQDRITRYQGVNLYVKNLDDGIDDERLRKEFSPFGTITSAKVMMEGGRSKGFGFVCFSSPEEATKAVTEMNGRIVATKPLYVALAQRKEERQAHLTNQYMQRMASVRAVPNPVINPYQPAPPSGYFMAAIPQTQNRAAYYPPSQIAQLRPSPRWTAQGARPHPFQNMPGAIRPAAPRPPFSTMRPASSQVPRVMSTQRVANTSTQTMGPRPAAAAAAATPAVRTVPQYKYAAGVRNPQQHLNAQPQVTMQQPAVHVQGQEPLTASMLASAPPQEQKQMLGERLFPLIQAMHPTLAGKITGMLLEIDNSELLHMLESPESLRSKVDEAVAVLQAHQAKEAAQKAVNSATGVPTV
# [3] = biological target: T2, Polyadenylate-binding protein 1; test: MLLE binding blockers, Cy5 peptide tracer – biochemical, fluorescence polarization, Cy5-PAM2 peptide, secondary, miRNA deadenylation inhibitor project, dose response (AID 602260); assay type: functional; conditions: read-out: IC50_Mean
# Nonstructural protein 1 = Nonstructural protein 1 (Influenza A virus, UniProt Q194T2); assay type: functional, Influenza A virus (A/California/07/2009(H1N1))
# Sequence of Nonstructural protein 1 (Q194T2 whole entry): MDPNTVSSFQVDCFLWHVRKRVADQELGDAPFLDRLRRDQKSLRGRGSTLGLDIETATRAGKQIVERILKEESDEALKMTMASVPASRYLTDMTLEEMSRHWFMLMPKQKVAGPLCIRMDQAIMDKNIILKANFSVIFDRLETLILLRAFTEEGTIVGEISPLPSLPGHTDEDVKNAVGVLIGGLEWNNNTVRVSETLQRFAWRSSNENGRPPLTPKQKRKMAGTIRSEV
# [4] = biological target: T3, Short transient receptor potential channel 4 (Mus musculus, UniProt Q9QUQ5); test: block of DAMGO-driven TRPC4 calcium entry – cell-based, HEK293 TRPC4/mu-opioid, Fluo-4 calcium, dose response (AID 434942); assay type: functional;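 also: potency of inhibitors blocking the TRPC4 calcium response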
# T3 sequence (Q9QUQ5 whole entry): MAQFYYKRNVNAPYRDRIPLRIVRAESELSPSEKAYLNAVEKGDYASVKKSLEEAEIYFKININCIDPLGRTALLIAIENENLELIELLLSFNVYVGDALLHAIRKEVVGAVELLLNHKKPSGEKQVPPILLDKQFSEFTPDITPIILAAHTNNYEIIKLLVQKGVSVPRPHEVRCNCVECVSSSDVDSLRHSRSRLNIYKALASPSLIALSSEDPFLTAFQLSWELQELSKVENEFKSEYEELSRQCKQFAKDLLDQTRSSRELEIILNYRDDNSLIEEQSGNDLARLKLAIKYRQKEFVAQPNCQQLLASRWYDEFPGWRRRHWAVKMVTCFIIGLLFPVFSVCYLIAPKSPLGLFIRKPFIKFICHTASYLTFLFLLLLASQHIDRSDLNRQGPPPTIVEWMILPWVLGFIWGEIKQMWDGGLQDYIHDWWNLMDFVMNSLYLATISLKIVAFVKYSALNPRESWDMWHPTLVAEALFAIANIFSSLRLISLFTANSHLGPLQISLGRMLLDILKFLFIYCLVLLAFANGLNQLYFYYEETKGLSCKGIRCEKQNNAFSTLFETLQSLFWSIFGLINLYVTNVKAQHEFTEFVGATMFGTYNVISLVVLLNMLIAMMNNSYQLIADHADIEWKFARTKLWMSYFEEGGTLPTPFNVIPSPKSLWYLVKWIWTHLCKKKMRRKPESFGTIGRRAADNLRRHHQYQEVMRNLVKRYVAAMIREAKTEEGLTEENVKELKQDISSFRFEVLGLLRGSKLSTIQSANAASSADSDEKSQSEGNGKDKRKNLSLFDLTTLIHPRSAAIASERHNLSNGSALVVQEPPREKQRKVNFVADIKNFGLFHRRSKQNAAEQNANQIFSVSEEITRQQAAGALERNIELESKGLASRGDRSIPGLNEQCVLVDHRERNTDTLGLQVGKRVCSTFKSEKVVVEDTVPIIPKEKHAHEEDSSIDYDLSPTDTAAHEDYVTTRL
# cells [5] = assay type: functional, cell-based
# cells [6] = assay type: functional, cell-based; remark: listed apart in the source
# Cytochrome P450 2C9 = Cytochrome P450 2C9 (Homo sapiens, UniProt P11712); conditions: Potency
# Sequence of Cytochrome P450 2C9 (P11712 whole entry): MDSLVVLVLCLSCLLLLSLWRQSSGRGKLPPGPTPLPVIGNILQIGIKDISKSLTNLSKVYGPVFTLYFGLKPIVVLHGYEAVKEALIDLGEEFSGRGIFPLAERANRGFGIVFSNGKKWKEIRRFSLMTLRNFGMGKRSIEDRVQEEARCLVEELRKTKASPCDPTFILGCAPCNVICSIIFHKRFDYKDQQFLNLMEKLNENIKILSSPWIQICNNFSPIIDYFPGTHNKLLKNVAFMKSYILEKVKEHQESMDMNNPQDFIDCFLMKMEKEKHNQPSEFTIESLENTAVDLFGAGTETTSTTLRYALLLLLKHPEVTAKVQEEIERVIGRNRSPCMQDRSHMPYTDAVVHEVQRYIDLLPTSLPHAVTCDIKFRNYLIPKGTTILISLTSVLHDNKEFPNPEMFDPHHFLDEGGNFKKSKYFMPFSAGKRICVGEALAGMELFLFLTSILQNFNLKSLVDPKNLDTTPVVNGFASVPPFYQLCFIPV
# Paired box protein Pax-8 = Paired box protein Pax-8 (Homo sapiens, UniProt Q06710); test: PAX8 transcriptional activity inhibition in RMG-I – RMG-I cells, luciferase, cherry-pick, dose response (AID 687027); assay type: functional, cell-based;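 also: luciferase reporter driven by Pax8 target thyroperoxidase promoter measured by SteadyGlo luminescence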
# Sequence of Paired box protein Pax-8 (Q06710 whole entry): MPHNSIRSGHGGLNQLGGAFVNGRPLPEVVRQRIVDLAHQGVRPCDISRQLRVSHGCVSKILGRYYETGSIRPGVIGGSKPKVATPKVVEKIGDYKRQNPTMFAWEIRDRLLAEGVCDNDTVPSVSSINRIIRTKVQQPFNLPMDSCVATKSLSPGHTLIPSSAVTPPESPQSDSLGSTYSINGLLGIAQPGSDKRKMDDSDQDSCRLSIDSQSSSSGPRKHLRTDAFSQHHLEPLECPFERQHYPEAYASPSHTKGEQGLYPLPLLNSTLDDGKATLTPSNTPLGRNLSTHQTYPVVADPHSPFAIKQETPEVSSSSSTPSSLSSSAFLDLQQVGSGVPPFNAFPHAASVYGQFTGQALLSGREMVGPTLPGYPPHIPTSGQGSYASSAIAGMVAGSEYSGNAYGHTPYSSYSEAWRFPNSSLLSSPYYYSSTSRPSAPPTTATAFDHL
# BJ [7] = test: cells; assay type: functional, cell-based; conditions: Homo sapiens
# BJ [8] = test: BJ-TERT-LT-ST fibroblast viability loss – cell-based, RAS-independent, luminescence, dose response (AID 1935); assay type: functional; conditions: Homo sapiens;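 also: BJ fibroblasts immortalized with TERT plus LT and ST oncogenes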
# [9] = general cell-killing toxicity readout – plate reader, dry powder samples, cytotoxicity control for PAX8 inhibitor project, dose response (AID 743021); assay type: functional, cell-based
# BJ [10] = test: BJ-TERT fibroblast viability loss – cell-based, RAS-independent, luminescence, dose response (AID 1933); assay type: functional; conditions: Homo sapiens
# [11] = DRD fibroblast viability loss – cell-based, non-viral oncogenic, luminescence, dose response (AID 1934); assay type: functional; conditions: Homo sapiens
# [12] = off-target signal loss in HeLa-CEM21 co-culture – HeLa F-luc CTL cells, cherry-picked, counter-screen for HIV-1 Env fusion inhibitor project, dose response (AID 652040); assay type: functional, cell-based;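 also: potency for signal decrease marking cytotoxic or nonspecific inhibition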
# [13] = HIV-1 AD8 envelope cell-cell fusion blockers – cherry-pick, dose response (AID 652062); assay type: functional, cell-based;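 also: luciferase signal from cell-cell fusion driven by HIV-1 clade B AD8 Env; potency is for inhibitors of fusion seen as a drop in luminescence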
# [14] = blockers of HIV-1 envelope-mediated cell-cell fusion – cherry-pick, dose response (AID 652057); assay type: functional, cell-based
# [15] = biological target: T4, DNA repair protein RAD52 homolog (Homo sapiens, UniProt P43351); assay type: functional, biochemical
# T4 sequence (P43351 whole entry): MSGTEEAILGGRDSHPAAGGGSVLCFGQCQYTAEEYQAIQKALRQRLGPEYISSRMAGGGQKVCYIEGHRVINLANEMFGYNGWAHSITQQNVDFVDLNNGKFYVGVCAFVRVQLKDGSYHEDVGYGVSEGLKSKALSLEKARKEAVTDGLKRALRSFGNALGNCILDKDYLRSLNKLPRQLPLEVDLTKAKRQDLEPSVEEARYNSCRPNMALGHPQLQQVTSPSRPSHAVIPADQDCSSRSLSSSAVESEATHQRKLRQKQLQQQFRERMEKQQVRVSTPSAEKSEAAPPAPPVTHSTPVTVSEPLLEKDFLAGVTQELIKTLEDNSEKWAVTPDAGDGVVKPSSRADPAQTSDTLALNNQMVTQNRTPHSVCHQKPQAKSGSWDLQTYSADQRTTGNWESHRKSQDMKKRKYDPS
# [16] = blockers of HIV-1 ZM109 envelope-driven cell-cell fusion – HeLa effector, CEM target cells, luciferase, cherry-pick, dose response (AID 652058); assay type: functional, cell-based;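 also: luciferase signal from HIV-1 Env mediated cell-cell fusion of effector and target cells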
# [17] = toxicity to human hepatoma HepG2 cells – cell-based, cherry-picked samples, cytotoxicity control, dose response (AID 1159577); assay type: functional
# [18] = P. falciparum Dd2 growth inhibitors, dose response, SYBR Green, cherry-picked samples (AID 1159567); assay type: functional, cell-based
# [19] = viability loss of HPDE-C7K cells – cell-based, fluorescence, HTS, primary screen (AID 431); assay type: functional; conditions: Homo sapiens
# Cytochrome P450 3A4 = Cytochrome P450 3A4 (Homo sapiens, UniProt P08684); conditions: Potency;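 also: confirmatory qHTS run detecting inhibitors and substrates of CYP3A4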
# Sequence of Cytochrome P450 3A4 (P08684 whole entry): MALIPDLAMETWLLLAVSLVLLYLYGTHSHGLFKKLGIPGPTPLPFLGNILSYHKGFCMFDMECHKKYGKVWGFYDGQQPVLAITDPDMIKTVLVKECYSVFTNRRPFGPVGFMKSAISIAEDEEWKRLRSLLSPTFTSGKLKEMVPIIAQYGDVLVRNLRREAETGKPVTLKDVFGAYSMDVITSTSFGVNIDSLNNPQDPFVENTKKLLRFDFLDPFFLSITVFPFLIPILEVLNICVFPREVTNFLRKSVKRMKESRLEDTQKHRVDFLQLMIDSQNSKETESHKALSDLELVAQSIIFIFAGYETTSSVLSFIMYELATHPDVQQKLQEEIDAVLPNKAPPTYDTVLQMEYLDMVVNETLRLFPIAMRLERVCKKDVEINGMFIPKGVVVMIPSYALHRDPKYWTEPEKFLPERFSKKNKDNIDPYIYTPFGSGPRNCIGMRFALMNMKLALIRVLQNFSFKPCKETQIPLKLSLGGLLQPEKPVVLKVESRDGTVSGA
# [20] = Luminescence Cell-Based Dose Retest to Confirm Inhibitors of Cancer Stem Cells. [Related pubchem assays (depositor defined):AID2717, AID2721]; assay type: functional; conditions: Homo sapiens
# [21] = HPDE-C7 pancreatic duct cell viability loss – fluorescence, HTS (AID 430); assay type: functional, cell-based; conditions: Homo sapiens
# [22] = biological target: T5, Ubiquitin-conjugating enzyme E2 N (Homo sapiens, UniProt P61088); assay type: functional;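 also: Dose-response confirmation in a TR-FRET assay detecting UBC13-driven polyubiquitin chain formation, inhibition measured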
# T5 sequence (P61088 whole entry): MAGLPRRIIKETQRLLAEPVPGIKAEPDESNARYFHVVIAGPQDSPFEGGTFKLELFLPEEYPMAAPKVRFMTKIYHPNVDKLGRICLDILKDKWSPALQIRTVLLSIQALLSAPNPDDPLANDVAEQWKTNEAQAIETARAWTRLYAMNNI
smiles,measurement,setting,value
N#Cc1cc2c(nc1S)CCCCCC2,IC50,[1],> 50 µM (not active)
same,IC50,[2],> 66 µM (inactive)
same,IC50,[3],> 66 µM (inactive)
CC(C)(C)Nc1c([N+](=O)[O-])ccc2c1=NC1(CCCCC1)[N+]=2[O-],IC50,[1],> 50 µM (not active)
same,IC50,Nonstructural protein 1,18.1 µM (active)
CC(C)C(NC(=O)c1ccc(C(C)(C)C)cc1)C(=O)NCC(c1ccccc1)N(C)C (centres undefined),EC50,[4],0.168 µM (active)
Cc1onc(-c2c(F)cccc2Cl)c1C(=O)N(C)CC(=O)Nc1cccc(F)c1,EC50,[4],2.11 µM (active)
COc1cc2c(cc1OC)C(C)N(S(=O)(=O)c1ccc(Cl)nc1)CC2 (centres undefined),EC50,cells [5],> 350 µM (not active)
same,EC50,cells [6],> 350 µM (not active)
COc1ccc(NC(=S)Nc2ccc3nccnc3c2)cc1,IC50,[1],> 50 µM (not active)
O=C(c1ccc(F)cc1)N(Cc1cccs1)C1CCS(=O)(=O)C1 (centres undefined),EC50,cells [5],> 350 µM (not active)
same,EC50,cells [6],> 350 µM (not active)
C=CCOC(=O)C(C(C)=O)C(NC(=O)OC)c1cccc(F)c1 (centres undefined),AC50,Cytochrome P450 2C9,1 µM (inconclusive)
NCCC[C@@H](CC(=O)N[C@@H]1CCCC[C@H]1C(=O)N[C@H](CC(=O)N[C@@H](CCC(=O)O)CC(=O)O)Cc1c[nH]c2ccccc12)NC(=O)C[C@H](CO)NC(=O)[C@@H]1CCCC[C@H]1N,AC50,Cytochrome P450 2C9,31.6 µM (inconclusive)
COc1cccc(NC(=O)Nc2nc(-c3ccc(OC)c(OC)c3)cs2)c1,AC50,Paired box protein Pax-8,7.88 µM (active)
same,EC50,BJ [7],8.03 µM (active)
same,EC50,BJ [8],9.04 µM (inconclusive)
same,AC50,[9],12.3 µM (active)
same,EC50,BJ [10],5.89 µM (active)
same,EC50,[11],5.56 µM (active)
O=C1CCCC2=C1C(Cc1ccccc1)C1=C(CCCC1=O)O2,EC50,cells [5],> 350 µM (not active)
same,EC50,cells [6],> 350 µM (not active)
Nc1cc(-c2ccccc2)nn1S(=O)(=O)c1ccc(F)cc1,AC50,[12],3.4 µM (active)
same,AC50,[13],3.99 µM (active)
same,AC50,[14],59.6 µM (active)
CC1CN(c2nc3ccccn3c(=O)c2/C=C(\C#N)C(=O)N2CCOCC2)CC(C)O1 (centres undefined),EC50,cells [5],> 350 µM (not active)
same,EC50,cells [6],> 350 µM (not active)
COc1ccc(-c2ccc(C(=O)O)o2)c([N+](=O)[O-])c1,IC50,[1],> 50 µM (not active)
CN(C)CCCNc1nc2cc(-c3cccc(C(F)(F)F)c3)sc2c(=O)n1C,AC50,[15],7.9 µM (active)
COC(=O)C1(C(=O)OC)C[C@H](c2ccccc2)N(Cc2ccccc2OC)[C@@H]1c1ccccc1,AC50,[12],3.26 µM (active)
same,AC50,[13],2.41 µM (active)
same,AC50,[16],1.75 µM (active)
same,AC50,[14],1.65 µM (active)
CCC(=O)N(C)C[C@@H]1Oc2cc(C#Cc3ccccc3)ccc2S(=O)(=O)N([C@H](C)CO)C[C@H]1C,AC50,[13],54.8 µM (active)
same,AC50,[16],1.58 µM (active)
same,AC50,[14],7.15 µM (active)
O=C(Cc1ccccn1)N1CCCCN2[C@@H](CO)[C@@H](c3ccc(-c4ccccc4F)cc3)[C@@H]2C1,AC50,Paired box protein Pax-8,57 µM (active)
same,AC50,[9],46.2 µM (active)
NC1(N2SC(S)=C3CCCC=C32)CCCCC1,AC50,[15],12.1 µM (active)
C=CC[N@@+]12CC[C@]34c5ccccc5N5/C=C6\C7N(/C=C(\C53)[C@@H](C[C@@H]41)/C(=C/CO)C2)c1ccccc1[C@@]71CC[N@@+]2(CC=C)C/C(=C\CO)[C@@H]6C[C@@H]12 (some centres undefined),AC50,[15],16.5 µM (active)
OC[C@@H]1[C@H](c2ccc(C3=CCCCC3)cc2)[C@@H](CNC2CCCC2)N1CC1CC1,AC50,[17],21.9 µM (active)
same,AC50,[18],1.61 µM (active)
COc1cccc(S(=O)(=O)Nc2ccc3c(c2)[C@@H]2C[C@H](CC(=O)NCc4ccccc4F)O[C@@H](CO)[C@@H]2O3)c1,AC50,[17],> 39 µM (inactive)
same,AC50,[18],5.32 µM (active)
CCCN(C)C[C@H]1Oc2ncc(C#Cc3ccc(OC)cc3)cc2C(=O)N([C@@H](C)CO)C[C@H]1C,AC50,[17],28.8 µM (active)
same,AC50,[18],2.78 µM (active)
COc1ccc2c3c(n(C)c2c1)[C@@H](CO)N(Cc1ccc(F)cc1)CC31CCN(CC2CC2)CC1,AC50,[17],> 39 µM (inactive)
same,AC50,[18],3.48 µM (active)
Cc1nc2sccn2c(=O)c1CCN1CCC(=C(c2ccc(F)cc2)c2ccc(F)cc2)CC1 [RITANSERIN],AC50,Cytochrome P450 2C9,25.1 µM (inconclusive)
same,EC50,[19],> 20 µM (not active)
same,AC50,Cytochrome P450 3A4,20 µM (inconclusive)
same,AC50,[20],6.23 µM (active)
same,EC50,[21],> 20 µM (not active)
same,IC50,[22],> 20 µM (inactive)
